According to US9642922B2, “Caspase-triggered nano-aggregation probes and methods of use” (The Board of Trustees of the Leland Stanford Junior …, priority 2013, dated 2017):
Marks after values point to notes of the source that are not given here.

Tests used:
[1] = tested on: STS-induced apoptotic HeLa cells; assay: Flow cytometry of STS-induced apoptotic HeLa cells labeled with probes; format: cell-based, human; conditions: 2 μM probe, compared with C-SNAF
Protocol: Approximately 10^5 HeLa cells in 1 mL DMEM medium were seeded onto 12-well plates. […] For the inhibitor blocking experiment, the STS-treated cells were first incubated with the caspase inhibitor Z-VAD-fmk (50 μM, R&D Systems) for 30 min, and then 2 μM C-SNAF was added. All cells incubations were 24 h, followed by staining with FLICA (FAM) after trypsinization. After washing with PBS (1×) three times, the cell pellets were resuspended in 300 μL PBS and applied for flow cytometry analysis using the FITC and Cy5.5 channels. The cell number for each flow cytometry analysis was approximately 5000 to 10000, and the data was processed using FlowJo software.

apoptotic HeLa cells = assay: Epifluorescence microscopy of apoptotic HeLa cells labeled with probes; format: cell-based, human; conditions: microscopy, 2 μM probe
Protocol: After removal of the medium, the cells were incubated with C-SNAF, L-ctrl, or D-ctrl at 2 μM for 24 h. Some cells were first incubated with caspase inhibitor (Z-VAD-fmk, 50 μM) for 30 min, followed by incubating with 2 μM C-SNAF for 24 h. The cells were carefully washed with PBS (1×) three times, and stained with Hoechst 33342 (2 μM) at 37° C. for 30 min. After rinses with PBS (1×) several times, the medium was replaced and the fluorescence images were acquired with DAPI and Cy5.5 filters. The images were processed using the standard CRi Nuance software, analyzed using Image J software package (NIH), and presented at the same intensity scale for comparison.
HeLa cells in #1.5 borosilicate 8-well chambered coverslips (Nunc) were either incubated with C-SNAF (2 μM) alone or co-incubated with DOX (1, 2, and 5 μM) and 2 μM C-SNAF, 2 μM C-SNAF together with caspase inhibitor (Z-VAD-fmk, 50 μM), or control probes D-ctrl and L-ctrl at 2 μM for 24 h. Then the medium was removed, the cells were carefully washed with PBS (1×) three times, and stained with nuclear binding probe Hoechst 33342 (2 μM) at 37° C. for 30 min. After several rinses with PBS (1×), the medium was replaced and the fluorescence images were acquired with DAPI and […] filters.

subcutaneous HeLa tumors = assay: In vivo fluorescence imaging of DOX-treated HeLa tumor-bearing mice; parameters: species or system mouse
Protocol: C-SNAF or either of the control probes (5 nmol) was administered intravenously to tumor-bearing mice and whole animal fluorescence was longitudinally monitored using a Maestro fluorescence imager.
To establish tumors in 6-week-old female nu/nu mice, 2×10^6 HeLa cells suspended in 50 μL of a 50% v/v mixture of Matrigel in supplemented DMEM (10% FBS, 1% penstrep) were injected subcutaneously in the shoulders of the mouse. Tumors were grown until a single aspect was 0.7 to 0.9 cm (approximately 10-15 days), and then treatment consisting of 8 mg/kg DOX or saline was initiated. Treatments were administered intravenously once every 4 d for a total of three times. Total mouse body weight and tumor size (width and length by caliper) was measured every other day. Tumor volumes were calculated assuming ellipsoid shape with the formula (l×w^2)/2.
Two days following the final treatment, 5 nmol probe in saline was injected intravenously and fluorescence imaging began immediately on a Maestro hyperspectral fluorescent imaging system (PerkinElmer, Mass., USA) using a 635±25 nm excitation filter and a 675 nm long-pass emission filter, with images acquired from 670 to 900 nm. Tissue autofluorescence and Cy5.5 fluorescence were deconvolved, and tumor fluorescence intensity was quantified by region of interest measurement using Nuance v.3.0.1.2 software (Perkin Elmer, Mass., USA).

caspase-3 [2] = biological target: T1, caspase-3 (Homo sapiens, UniProt P42574); assay: HPLC assay of caspase-3-triggered macrocyclization of C-SNAF; format: biochemical; parameters: purchased Sigma; host or cells: E. coli; conditions: same conditions as C-SNAF; D-ctrl after 24 h
T1 sequence (P42574 29-175 limits assumed): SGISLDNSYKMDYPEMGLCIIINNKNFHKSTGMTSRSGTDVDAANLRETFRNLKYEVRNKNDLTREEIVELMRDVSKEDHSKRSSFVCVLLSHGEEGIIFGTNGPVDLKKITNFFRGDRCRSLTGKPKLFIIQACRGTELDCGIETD
T1 sequence (P42574 176-277 limits assumed): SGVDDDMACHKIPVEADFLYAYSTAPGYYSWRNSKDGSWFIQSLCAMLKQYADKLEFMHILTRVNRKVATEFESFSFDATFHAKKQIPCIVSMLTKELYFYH
Protocol: The progression of caspase-3-triggered macrocyclization of C-SNAF to form C-SNAF-cycl in solution was monitored using high-performance liquid chromatography (HPLC) following incubation of the probe (25 μM) with recombinant human caspase-3 (4.9×10^−[…]).
Caspase (human, recombinant from E. coli) assays were performed for caspase-3 (4.9×10^−3 U; 7.35×10^−4 mg, Sigma), −7 (18.3 U; 7.35×10^−4 mg, Calbiochem), and −9 (0.3 U; 7.35×10^−4 mg, Calbiochem). All caspase assays were conducted in caspase buffer with 50 mM HEPES, 100 mM NaCl, 1 mM EDTA, 10 mM TCEP, 10% glycerol, and 0.1% CHAPS at pH 7.4. Cathepsin B (human liver; 0.27 U; 7.35×10^−4 mg, Calbiochem) and Legumain (human, recombinant from mouse myeloma cell line; >250 pmol/min/μg; 7.35×10^−4 mg, R&D Systems) were conducted in reaction buffer with 50 mM sodium acetate, 50 mM NaCl, 0.5 mM EDTA and 10 mM TCEP at pH 5.5. C-SNAF was diluted in the respective enzyme reaction buffer (25 μM, 1 mL) and remained at room temperature for 10 min, to which was then added the respective enzymes. Reactions were performed at 37° C., and monitored by HPLC hourly. The percentage conversion of the reaction was calculated based on the percentage of peak area of C-SNAF-cycl in the HPLC trace at 675 nm UV detection, which indicated the efficacy of enzyme cleavage of C-SNAF.

Caspase-3 [3] = biological target: T2, Caspase-3 (Mus musculus, UniProt P70677); conditions: cited from earlier work
T2 sequence (P70677 29-175 limits assumed): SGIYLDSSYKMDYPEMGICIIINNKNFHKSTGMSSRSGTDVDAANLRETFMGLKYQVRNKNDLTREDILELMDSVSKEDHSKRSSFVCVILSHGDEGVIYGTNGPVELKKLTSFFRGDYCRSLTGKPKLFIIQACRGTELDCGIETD
T2 sequence (P70677 176-277 limits assumed): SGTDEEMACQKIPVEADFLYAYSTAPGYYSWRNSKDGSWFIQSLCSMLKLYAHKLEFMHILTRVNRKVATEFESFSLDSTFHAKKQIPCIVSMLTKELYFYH

PS binding = conditions: cited from earlier work

For `CC[N+]1=C(C=CC=CC=C2N(CCCCCC(=O)NCCCCC(NC(=O)C(CSC)NC(=O)C(CC(=O)O)NC(=O)C(NC(=O)C(CCC(=O)O)NC(=O)C(CC(=O)O)NC(C)=O)C(C)C)C(=O)Nc3ccc4nc(C5=NC(C(=O)NCCCOc6ccc7ncccc7c6)CS5)sc4c3)c3ccc4c(S(=O)(=O)O)cc(S(=O)(=O)O)cc4c3C2(C)C)C(C)(C)c2c1ccc1c(S(=O)(=O)O)cc(S(=O)(=O)[O-])cc21` [D-ctrl], the “fluorescent intensity of apoptotic cells incubated with control probes” value [1] was “much lower fluorescent intensity”, the “fluorescence of apoptotic cells compared to C-SNAF” value (apoptotic HeLa cells) was “relatively weaker fluorescence” and the “correlation (r) of maximum tumor fluorescence with maximum tumor size change” value (subcutaneous HeLa tumors; 3×DOX-treated mice, 1 h after probe) was “no significant correlation”. The “average signal enhancement between DOX- and saline-treated tumors” value (subcutaneous HeLa tumors; 4 h after probe administration) was −12%, the “tumor fluorescence lower than that of C-SNAF” value (subcutaneous HeLa tumors; DOX-treated mice, 1 h) was 10% and the “products observed after incubation with caspase-3” value (caspase-3 [2]) was “no new products were observed”.

For `O=C1C(=O)N(Cc2cn(CC[18F])nn2)c2ccc(S(=O)(=O)N3CCCC3COc3ccc(F)cc3F)cc21` (stereo not drawn) [[^18F]ICMT-11], the “Target/Background (Tumor/blood)” value (Caspase-3 [3]; Tumor/blood) is given as 1.2^c, the “time course of uptake at the apoptotic tumors” value (Caspase-3 [3]; mouse, in vivo) is given as “decreased over the time after injection” and the Treated/Untreated (Caspase-3 [3]; treated and untreated group in different animal) is given as 1.5^d.

B1: [^18F]Annexin V: known apoptosis PET tracer, PS binding (protein, UniProt P08758 2-320, looked up)
Annexin A5: AQVLRGTVTDFPGFDERADAETLRKAMKGLGTDEESILTLLTSRSNAQRQEISAAFKTLFGRDLLDDLKSELTGKFEKLIVALMKPSRLYDAYELKHALKGAGTNEKVLTEIIASRTPEELRAIKQVYEEEYGSSLEDDVVGDTSGYYQRMLVVLLQANRDPDAGIDEAQVEQDAQALFQAGELKWGTDEEKFITIFGTRSVSHLRKVFDKYMTISGFQIEETIDRETSGNLEQLLLAVVKSIRSIPAYLAETLYYAMKGAGTDDHTLIRVMVSRSEIDLFNIRKEFRKNFATSLYSMIKGDTSGDYKKALLLLCGEDD
modifications: 18F radiolabel
In the case of B1, the “% ID/g at target site” value (PS binding; PET imaging) is given as 1.56 ± 0.2 % ID/g, the Target/Background (PS binding; maximum value at the apoptotic tissue) is given as 3.4 and the Treated/Untreated (PS binding; pre and post treatment in same animal) is given as 1.6^b.
